{"source": "patent US20060292221A1", "about": "“TIMED-RELEASE COMPRESSION-COATED SOLID COMPOSITION FOR ORAL ADMINISTRATION” (Astellas Pharma, Inc., priority 2000, published 2006)", "key": {"[1]": {"test": "Determination of percentage erosion of core tablet", "format": "physicochemical", "conditions": "3 hours in water at 37° C.; for Percentage erosion (%) of compression-coated tablets containing acetaminophen: core: 5 parts acetaminophen + 10 parts of the filler; for Percentage erosion (%) of compression-coated tablet containing Compound 1: core: 9 parts Compound 1 solid dispersion + 6 parts of the filler", "protocol": "A compression-coated tablet containing drug is made in accordance with the method of producing a timed-release compression-coated solid composition disclosed in the present invention, the tablet is moistened for 3 hours in water at 37° C., then the gelled part of the tablet is peeled off and the portion of the core tablet that has not eroded is removed. The core tablet is allowed to dry overnight in a dryer at 40° C. and weight is determined. The value obtained by subtracting dry weight from initial core tablet weight and dividing this by initial core weight is multiplied by 100 to calculate the percentage erosion.\nThe percentage erosion of the core tablet of both of the above-mentioned pharmaceutical preparations was determined in accordance with the previously described method of determining the percentage erosion of the core tablet.\nThen 6 parts by weight of each filler were added to 9 parts by weight of the solid dispersion and mixed with a mortar and pestle. A core tablet of 150 mg per tablet with a diameter of 6.5 mm was obtained under compression force of 500 kg/punch using an oil press. Moreover, 10 parts by weight of each filler were separately added to 5 parts by weight acetaminophen (Yoshitomi Seiyaku) and mixed with a mortar and pestle and core tablets of 150 mg per tablet with a diameter of 6.5 mm were obtained under compression force of 500 kg/punch using an oil press. Furthermore, 75 mg polyethylene oxide (Polyox® WSR303) and 175 mg Macrogol 6000 were mixed with a mortar and pestle as the outer layer. […] This tablet was immersed for 3 hours in water at 37° C. and then the gelated part of the tablet was peeled off and the uneroded core was removed. The core was dried in a dryer overnight at 40° C. and then weighed. The percentage erosion of the core tablet was calculated from the dry weight and initial weight."}, "[2]": {"test": "Solubility of each filler (amount of water needed to dissolve 1 g filler)"}, "CYP3A4 [3]": {"system": "CYP3A4", "test": "Test Example 7: midazolam plasma concentration in dogs with concomitant ketoconazol", "conditions": "aqueous solution containing ketoconazol with midazolam"}, "CYP3A4 [4]": {"system": "CYP3A4", "test": "Test Example 5: midazolam plasma concentration in dogs with concomitant Compound 1", "conditions": "Experiment 1, midazolam singular administration, oral 4 mg/dog, n=6"}}, "data": [{"molecule": "O=C(O)CCC(=O)O", "note": "[Succinic acid]", "values": [{"measurement": "Percentage erosion (%) of compression-coated tablets containing acetaminophen", "setting": "[1]", "result": 12.8, "unit": "%"}, {"measurement": "Percentage erosion (%) of compression-coated tablet containing Compound 1", "setting": "[1]", "result": 19.2, "unit": "%"}]}, {"molecule": "O=C(O)/C=C/C(=O)O", "note": "[Fumaric acid]", "values": [{"measurement": "Percentage erosion (%) of compression-coated tablet containing Compound 1", "setting": "[1]", "result": 2.0, "unit": "%"}, {"measurement": "Solubility of filler", "setting": "[2]; Table 3", "result": "> 10", "unit": "mL"}]}, {"molecule": "O=C1O[C@H]([C@@H](O)CO)C(O)=C1O", "note": "[Ascorbic acid]", "values": [{"measurement": "Percentage erosion (%) of compression-coated tablet containing Compound 1", "setting": "[1]", "result": 32.4, "unit": "%"}]}, {"molecule": "N[C@@H](CC(=O)O)C(=O)O", "note": "[Aspartic acid]", "values": [{"measurement": "Percentage erosion (%) of compression-coated tablet containing Compound 1", "setting": "[1]", "result": 1.4, "unit": "%"}]}, {"molecule": "O=C(O)C(O)C(O)C(=O)O", "note": "(centres unmarked) [Tartaric acid]", "values": [{"measurement": "Percentage erosion (%) of compression-coated tablet containing Compound 1", "setting": "[1]", "result": 65.7, "unit": "%"}]}, {"molecule": "O=C(O)CC(O)(CC(=O)O)C(=O)O", "note": "[Citric acid]", "values": [{"measurement": "Percentage erosion (%) of compression-coated tablet containing Compound 1", "setting": "[1]", "result": 60.3, "unit": "%"}]}, {"molecule": "OC[C@H]1O[C@@H](O[C@H]2[C@H](O)[C@@H](O)C(O)O[C@@H]2CO)[C@H](O)[C@@H](O)[C@H]1O", "note": "(some centres unmarked) [Lactose]", "values": [{"measurement": "Percentage erosion (%) of compression-coated tablets containing acetaminophen", "setting": "[1]", "result": 7.6, "unit": "%"}, {"measurement": "Percentage erosion (%) of compression-coated tablet containing Compound 1", "setting": "[1]", "result": 24.0, "unit": "%"}]}, {"molecule": "OC[C@H]1O[C@@](CO)(O[C@H]2O[C@H](CO)[C@@H](O)[C@H](O)[C@H]2O)[C@@H](O)[C@@H]1O", "note": "[Sucrose]", "values": [{"measurement": "Percentage erosion (%) of compression-coated tablets containing acetaminophen", "setting": "[1]", "result": 56.1, "unit": "%"}, {"measurement": "Percentage erosion (%) of compression-coated tablet containing Compound 1", "setting": "[1]", "result": 48.4, "unit": "%"}, {"measurement": "Solubility of filler", "setting": "[2]; Table 3", "result": 1, "unit": "mL"}, {"measurement": "Solubility of filler", "setting": "[2]; Table 4", "result": 1, "unit": "mL"}]}, {"molecule": "CC(=O)N1CCN(c2ccc(OCC3COC(Cn4ccnc4)(c4ccc(Cl)cc4Cl)O3)cc2)CC1", "note": "(centres unmarked) [ketoconazol]", "values": [{"measurement": "increase of average midazolam AUC compared to midazolam singular administration", "setting": "CYP3A4 [3]", "result": "≤ 4", "unit": "times"}]}, {"molecule": "Cc1ncc2n1-c1ccc(Cl)cc1C(c1ccccc1F)=NC2", "note": "[Midazolam, midazolam]", "values": [{"measurement": "Mean AUC of midazolam plasma concentration", "setting": "CYP3A4 [4]", "result": "9.0 ± 6.0", "unit": "ngh/ml"}]}, {"molecule": "O=C(O)CC(O)C(=O)O", "note": "(centres unmarked) [Malic acid]", "values": [{"measurement": "Percentage erosion (%) of compression-coated tablets containing acetaminophen", "setting": "[1]", "result": 79.3, "unit": "%"}, {"measurement": "Percentage erosion (%) of compression-coated tablet containing Compound 1", "setting": "[1]", "result": 75.0, "unit": "%"}, {"measurement": "Solubility of filler", "setting": "[2]; Table 3", "result": 2, "unit": "mL"}, {"measurement": "Solubility of filler", "setting": "[2]; Table 4", "result": 2, "unit": "mL"}]}]}
